Reference: patent publication US20130171098A1, “Cyclopropyl Fused Indolobenzazepine HCV NS5B Inhibitors” (priority 2006, published 2013)
pEC50, pIC50: −log10 of the molar value. Like-named read-outs stand apart in the source and are kept apart here.

Key:
[1] = target: T1, HCV NS5B RdRp genotype 1b (Hepatitis C virus genotype 1b, UniProt Q9WMX2); test: HCV NS5B RdRp enzyme assay (standard / modified); assay type: biochemical
T1 construct: The protein was expressed with an 18 amino acid C-terminal truncation to enhance the solubility; made in house; host or cells: E. coli BL21(DE3), pET21a vector
Protocol: HCV NS5B RdRp Cloning, Expression, and Purification.
The cDNA encoding the NS5B protein of HCV, genotype 1b, was cloned into the pET21a expression vector. The protein was expressed with an 18 amino acid C-terminal truncation to enhance the solubility. The E. coli competent cell line BL21(DE3) was used for expression of the protein. Cultures were grown at 37° C. for ˜4 hours until the cultures reached an optical density of 2.0 at 600 nm. The cultures were cooled to 20° C. and induced with 1 mM IPTG. Fresh ampicillin was added to a final concentration of 50 μg/ml and the cells were grown overnight at 20° C.
The lysis buffer consisted of 20 mM Tris-HCl, pH 7.4, 500 mM NaCl, 0.5% triton X-100, 1 mM DTT, 1 mM EDTA, 20% glycerol, 0.5 mg/ml lysozyme, 10 mM MgCl2, 15 ug/ml deoxyribonuclease I, and Complete TM protease inhibitor tablets (Roche). After addition of the lysis buffer, frozen cell pellets were resuspended using a tissue homogenizer. To reduce the viscosity of the sample, aliquots of the lysate were sonicated on ice using a microtip attached to a Branson sonicator. The sonicated lysate was centrifuged at 100,000×g for 1 hr at 4° C. and filtered through a 0.2 μm filter unit (Corning).
The protein was purified using two sequential chromatography steps: Heparin sepharose CL-6B and polyU sepharose 4B (Pharmacia). The chromatography buffers were identical to the lysis buffer but contained no lysozyme, deoxyribonuclease I, MgCl2 or protease inhibitor and the NaCl concentration of the buffer was adjusted according to the requirements for charging the protein onto the column. Each column was eluted with a NaCl gradient which varied in length from 5-50 column volumes depending on the column type. […] The enzyme was aliquoted and stored at −80° C.
Standard HCV NS5B RdRp Enzyme Assay.
HCV RdRp genotype 1b assays were run in a final volume of 60 μl in 96 well plates (Corning 3600). The assay buffer is composed of 20 mM Hepes, pH 7.5, 2.5 mM KCl, 2.5 mM MgCl2, 1 mM DTT, 1.6 U RNAse inhibitor (Promega N2515), 0.01 mg/ml BSA (Sigma B6917), and 2% glycerol. All compounds were serially diluted (3-fold) in DMSO and diluted further in water such that the final concentration of DMSO in the assay was 2%. HCV RdRp genotype 1b enzyme was used at a final concentration of 28 nM. A polyA template was used at 6 nM, and a biotinylated oligo-dT12 primer was used at 180 nM final concentration. Template was obtained commercially (Amersham 27-4110). Biotinylated primer was prepared by Sigma Genosys. 3H-UTP was used at 0.6 μCi (0.29 μM total UTP). Reactions were initiated by the addition of enzyme, incubated at 30° C. for 60 min, and stopped by adding 25 μl of 50 mM EDTA containing SPA beads (4 μg/μl, Amersham RPNQ 0007). Plates were read on a Packard Top Count NXT after >1 hr incubation at room temperature.
Modified HCV NS5B RdRp Enzyme Assay.
A modified enzyme assay was performed essentially as described for the standard enzyme assay except for the following: The biotinylated oligo dT12 primer was precaptured on streptavidin-coated SPA beads by mixing primer and beads in assay buffer and incubating at room temperature for one hour. Unbound primer was removed after centrifugation. The primer-bound beads were resuspended in 20 mM Hepes buffer, pH 7.5 and used in the assay at final concentrations of 20 nM primer and 0.67 μg/μl beads. Order of addition in the assay: enzyme (1.75 nM) was added to diluted compound followed by the addition of a mixture of template (0.36 nM), 3H-UTP (0.6 μCi, 0.29 μM), and primer-bound beads, to initiate the reaction; concentrations given are final. Reactions were allowed to proceed for 4 hours at 30° C.
IC50 values for compounds were determined using seven different [I].

[2] = system: HCV replicon cells; test: HCV replicon FRET / luciferase assay; assay type: cell-based, Hepatitis C virus
Protocol: The HCV FRET screening assay was performed in 96-well cell culture plates. The FRET peptide (Anaspec, Inc.) (Taliani et al., Anal. Biochem. 1996, 240, 60-67) contains a fluorescence donor, EDANS, near one end of the peptide and an acceptor, DABCYL, near the other end. The fluorescence of the peptide is quenched by […] resonance energy transfer (RET) between the donor and the acceptor, but as the NS3 protease cleaves the peptide the products are released from RET quenching and the fluorescence of the donor becomes apparent. The assay reagent was made as follows: 5× cell Luciferase cell culture lysis reagent from Promega (#E153A) diluted to 1× with dH2O, NaCl added to 150 mM final, the FRET peptide diluted to 20 μM final from a 2 mM stock.
To prepare plates, HCV replicon cells, with or without a Renilla luciferase reporter gene, were trypsinized and plated in a 96-well plate with titrated test compounds added in columns 3 through 12; columns 1 and 2 contained a control compound (HCV control inhibitor), and the bottom row contained cells with DMSO only. The plates were then placed in a CO2 incubator at 37° C.
Subsequent to addition of the test compounds described above (FRET Assay Preparation), at various times the plate was removed and Alamar blue solution (Trek Diagnostics, #00-100) was added to measure cellular toxicity. After reading in a Cytoflour 4000 instrument (PE Biosystems), plates were rinsed with PBS and then used for FRET assay by the addition of 30 ul of the FRET peptide assay reagent described above (FRET Assay Preparation) per well. The plate was then placed into the Cytoflour 4000 instrument which had been set to 340 excite/490 emission, automatic mode for up to 20 cycles and the plate read in a kinetic mode. Typically, the signal to noise using an endpoint analysis after the reads was at least three-fold. Alternatively, after Alamar blue reading, plates were rinsed with PBS, then used for luciferase assay using the Promega Dual-Glo Luciferase Assay System or the Promega EnduRen Live Cell Substrate assay.
Compound analysis was performed by quantification of the relative HCV replicon inhibition and the relative cytotoxicity values. To calculate cytoxicity values, the average Alamar Blue fluorescence signals from the control wells were set as 100% non-toxic. The individual signals in each of the compound test wells were then divided by the average control signal and multiplied by 100% to determine […]. To calculate the HCV replicon inhibition values, an average background value was obtained from the two wells containing the highest amount of HCV control inhibitor at the end of the assay period. These numbers were similar to those obtained from naïve Huh-7 cells. The background numbers were then subtracted from the average signal obtained from the control wells and this number was used as 100% activity. The individual signals in each of the compound test wells were then divided by the averaged control values after background subtraction and multiplied by 100% to determine percent activity. […] The two numbers generated for the compound plate, percent cytoxicity and percent activity, were used to determine compounds of interest for further analysis.

[3] = HCV replicon cells, FRET or luciferase activity

T1 sequence (Q9WMX2 2420-2992): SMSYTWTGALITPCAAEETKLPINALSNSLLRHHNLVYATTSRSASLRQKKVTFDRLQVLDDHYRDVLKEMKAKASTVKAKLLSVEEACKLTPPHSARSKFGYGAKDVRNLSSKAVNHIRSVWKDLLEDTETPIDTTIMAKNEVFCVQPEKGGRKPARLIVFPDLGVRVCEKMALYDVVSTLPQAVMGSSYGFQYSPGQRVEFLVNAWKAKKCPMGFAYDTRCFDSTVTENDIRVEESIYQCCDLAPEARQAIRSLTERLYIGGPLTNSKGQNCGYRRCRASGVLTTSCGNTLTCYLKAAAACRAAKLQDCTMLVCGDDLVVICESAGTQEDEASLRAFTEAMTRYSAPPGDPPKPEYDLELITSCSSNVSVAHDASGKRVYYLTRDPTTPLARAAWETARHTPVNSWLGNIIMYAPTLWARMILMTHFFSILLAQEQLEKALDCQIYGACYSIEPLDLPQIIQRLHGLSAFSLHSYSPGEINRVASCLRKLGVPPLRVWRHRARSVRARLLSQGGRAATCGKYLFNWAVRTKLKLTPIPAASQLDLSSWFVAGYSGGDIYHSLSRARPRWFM

Row | Compound | pIC50 [1] | pEC50 ([2]; Hepatitis C virus) | pEC50 ([2]; Hepatitis C virus, HCV replicon cells, FRET or luciferase activity, read-out: EC50) | pEC50 [2, 3]
1 | COc1ccc2c(c1)C1CC1(C(=O)N1CC3CCC(C1)N3C)Cn1c-2c(C2CCCCC2)c2ccc(C(=O)NS(=O)(=O)N(C)C)cc21 (stereo not shown) | 6.30 to 9.00 | 6.30 to 9.00 |  | 
2 | COc1ccc2c(c1)C1CC1(C(=O)N1[C@@H]3CC[C@H]1CN(S(C)(=O)=O)C3)Cn1c-2c(C2CCCCC2)c2ccc(C(=O)NS(=O)(=O)N(C)C)cc21 (stereo partly shown) | 6.30 to 9.00 | 6.30 to 9.00 |  | 
3 | CN1CC2CCC(C1)N2C(=O)C1=Cc2c(OC(F)(F)F)cccc2-c2c(C3CCCCC3)c3ccc(C(=O)NS(=O)(=O)N(C)C)cc3n2C1 | < 6.30 | < 6.30 |  | 
4 | COC(=O)c1ccc2c(C3CCCCC3)c3n(c2c1)CC1(C(=O)N2C4CCC2CN(C)C4)CC1c1c(OC)cccc1-3 (stereo not shown) | < 6.30 |  |  | 
5 | COc1cccc2c1C1CC1(C(=O)N1C3CCC1CN(C)C3)Cn1c-2c(C2CCCCC2)c2ccc(C(=O)O)cc21 (stereo not shown) | 6.30 to 9.00 | 6.30 to 9.00 |  | 
6 | COC(=O)c1ccc2c(C3CCCCC3)c3n(c2c1)CC1(C(=O)N2C4CCC2CN(C)C4)CC1c1c(OC(F)(F)F)cccc1-3 (stereo not shown) | < 6.30 |  |  | 
7 | COc1cccc2c1C1CC1(C(=O)N1C3CCC1CN(C)C3)Cn1c-2c(C2CCCCC2)c2ccc(C(=O)NS(=O)(=O)N(C)C)cc21 (stereo not shown) | 6.30 to 9.00 | < 6.30 |  | 
8 | CN1CC2CCC(C1)N2C(=O)C12CC1c1c(OC(F)(F)F)cccc1-c1c(C3CCCCC3)c3ccc(C(=O)O)cc3n1C2 (stereo not shown) | 6.30 to 9.00 | 6.30 to 9.00 |  | 
9 | CN1CC2CCC(C1)N2C(=O)C12CC1c1c(OC(F)(F)F)cccc1-c1c(C3CCCCC3)c3ccc(C(=O)NS(=O)(=O)N(C)C)cc3n1C2 (stereo not shown) | 6.30 to 9.00 | 6.30 to 9.00 |  | 
10 | COc1ccc2c(c1)C1CC1(C(=O)N1[C@@H]3CC[C@H]1CN(C(=O)N(C)C)C3)Cn1c-2c(C2CCCCC2)c2ccc(C(=O)NS(=O)(=O)N(C)C)cc21 (stereo partly shown) | 6.30 to 9.00 | 6.30 to 9.00 |  | 
11 | COc1ccc2c(c1)C1CC1(C(=O)N1[C@@H]3CC[C@H]1CN(C(=O)OCc1ccccc1)C3)Cn1c-2c(C2CCCCC2)c2ccc(C(=O)NS(=O)(=O)N(C)C)cc21 (stereo partly shown) | 6.30 to 9.00 | 6.30 to 9.00 |  | 
12 | COc1ccc2c(c1)C1CC1(C(=O)N1[C@@H]3CC[C@H]1CN(Cc1ccccc1)C3)Cn1c-2c(C2CCCCC2)c2ccc(C(=O)NS(=O)(=O)N(C)C)cc21 (stereo partly shown) | 6.30 to 9.00 | 6.30 to 9.00 |  | 
13 | COc1ccc2c(c1)C1CC1(C(=O)N1[C@@H]3CC[C@H]1CN(C(C)=O)C3)Cn1c-2c(C2CCCCC2)c2ccc(C(=O)NS(=O)(=O)N(C)C)cc21 (stereo partly shown) | 6.30 to 9.00 | 6.30 to 9.00 |  | 
14 | COc1ccc2c(c1)[C@@H]1C[C@]1(C(=O)N1[C@@H]3CC[C@H]1CN(S(C)(=O)=O)C3)Cn1c-2c(C2CCCCC2)c2ccc(C(=O)NS(=O)(=O)N(C)C)cc21 | 6.30 to 9.00 | 6.30 to 9.00 |  | 
15 | COc1ccc2c(c1)C1CC1(C(=O)N1C3CCC1CN(C)C3)Cn1c-2c(C2CCCCC2)c2ccc(C(=O)NS(=O)(=O)C(C)C)cc21 (stereo not shown) |  | 6.30 to 9.00 |  | 
16 | COc1ccc2c(c1)[C@H]1C[C@@]1(C(=O)N1C3CCC1CN(C)C3)Cn1c-2c(C2CCCCC2)c2ccc(C(=O)NS(=O)(=O)C(C)C)cc21 |  | 6.30 to 9.00 |  | 
17 | COc1ccc2c(c1)[C@@H]1C[C@]1(C(=O)N1C3CCC1CN(C)C3)Cn1c-2c(C2CCCCC2)c2ccc(C(=O)NS(=O)(=O)C(C)C)cc21 |  | 6.30 to 9.00 |  | 
18 | COc1ccc2c(c1)C1CC1(C(=O)N1C3CCC1CN(C)C3)Cn1c-2c(C2CCCCC2)c2ccc(C(=O)NS(=O)(=O)C3CCCC3)cc21 (stereo not shown) |  | 6.30 to 9.00 |  | 
19 | COc1ccc2c(c1)C1CC1(C(=O)N1C3CCC1CN(C)C3)Cn1c-2c(C2CCCCC2)c2ccc(C(=O)NS(=O)(=O)CC(C)C)cc21 (stereo not shown) |  |  | 6.30 to 9.00 | 
20 | CCCS(=O)(=O)NC(=O)c1ccc2c(C3CCCCC3)c3n(c2c1)CC1(C(=O)N2C4CCC2CN(C)C4)CC1c1cc(OC)ccc1-3 (stereo not shown) |  | 6.30 to 9.00 |  | 
21 | CCC(C)S(=O)(=O)NC(=O)c1ccc2c(C3CCCCC3)c3n(c2c1)CC1(C(=O)N2C4CCC2CN(C)C4)CC1c1cc(OC)ccc1-3 (stereo not shown) |  | 6.30 to 9.00 |  | 
22 | COc1ccc2c(c1)C1CC1(C(=O)N1C3CCC1CN(C)C3)Cn1c-2c(C2CCCCC2)c2ccc(C(=O)NS(=O)(=O)C(C)(C)C)cc21 (stereo not shown) |  | 6.30 to 9.00 |  | 
23 | CN1CC2CCC(C1)N2C(=O)C12CC1c1ccccc1-c1c(C3CCCCC3)c3ccc(C(=O)NS(=O)(=O)N(C)C)cc3n1C2 (stereo not shown) |  | 6.30 to 9.00 |  | 
24 | COc1ccc2c(c1)C1CC1(C(=O)N1C3CCC1CN(C)C3)Cn1c-2c(C2CCCCC2)c2ccc(C(=O)NS(=O)(=O)CCC(F)(F)F)cc21 (stereo not shown) |  | 6.30 to 9.00 |  | 
25 | COc1ccc2c(c1)C1CC1(C(=O)N1C3CCC1CN(C)C3)Cn1c-2c(C2CCCCC2)c2ccc(C(=O)NS(=O)(=O)CC(F)(F)F)cc21 (stereo not shown) |  | 6.30 to 9.00 |  | 
26 | CC(C)S(=O)(=O)NC(=O)c1ccc2c(C3CCCCC3)c3n(c2c1)CC1(C(=O)N2C4CCC2CN(C)C4)CC1c1ccccc1-3 (stereo not shown) [drawing 126] |  | 6.30 to 9.00 |  | 
27 | CC(C)S(=O)(=O)NC(=O)c1ccc2c(C3CCCCC3)c3n(c2c1)CC1(C(=O)N2C4CCC2CN(C)C4)CC1c1ccccc1-3 (stereo not shown) [drawing 130] |  |  |  | 6.30 to 9.00
28 | CC(C)S(=O)(=O)NC(=O)c1ccc2c(C3CCCCC3)c3n(c2c1)CC1(C(=O)N2C4CCC2CN(C)C4)CC1c1ccccc1-3 (stereo not shown) [drawing 131] |  |  |  | 6.30 to 9.00
